# Laboratory results published in patent US11518805B2, “Binding inhibitor between TCTP dimer type IgE-dependent histamine releasing factor and receptor thereof, and use thereof” (EWHA UNIVERSITY—INDUSTRY COLLABORATION FOUNDATION, priority 2014, dated 2022).
# Entries after “also recorded” stand apart in the source; their conditions may differ.
# T1: Del-N11dTCTP (Rattus norvegicus, UniProt P63029)
# T1 construct: made in house
# T1 sequence (P63029 11-172 limits assumed): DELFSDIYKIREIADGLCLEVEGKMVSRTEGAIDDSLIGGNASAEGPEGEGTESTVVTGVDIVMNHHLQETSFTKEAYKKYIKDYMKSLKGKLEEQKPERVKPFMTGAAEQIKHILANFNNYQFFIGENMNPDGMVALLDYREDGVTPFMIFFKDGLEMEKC
# Tests used:
# HRF [1] = test: HRF binding affinity of heptamer peptides by ELISA (alanine scan of p2); details: p2 and its substituted heptamers m1-m7
# Description: In order to confirm the residues involved in the HRF binding affinity of the heptamer peptide of the present invention, the amino acid sequence of p2 was substituted with alanine (A), and only m5 was substituted with lysine (K). As a result, the following sequences were established: […]
# Del-N11dTCTP = target: T1, Del-N11dTCTP; test: Inhibition of Del-N11dTCTP-induced IL-8 secretion by domain peptides in BEAS-2B cells; type: cell-based; details: Del-N11dTCTP 70 nM, peptide molar ratios 0~1, 24 hours, ELISA
# Protocol: To investigate inhibitory effect of FL domain, Helix 2 domain, and Helix 3 domain on Del-N11dTCTP, the inventors synthesized FL domain (Ac-[…]-NH2) (SEQ. ID. NO: 1), Helix 2 domain (Ac-[…]-NH2) (SEQ. ID. NO: 11), and Helix 3 domain (Ac-[…]-NH2) (SEQ. ID. NO: 22) by using the synthetic peptides prepared with NH2-terminal acetylation and COOH-terminal amidation, followed by purification.
# Particularly, BEAS-2B cells were treated with Del-N11dTCTP (70 nM) by the same manner as described in Experimental Example 1. At this time, the synthesized FL domain, Helix 2 domain, and Helix 3 domain were treated to the cells at different molar ratios (0˜1), followed by reaction for 30 minutes. Then, Del-N11dTCTP was added thereto. 24 hours later, the supernatant was obtained and the released IL-8 was quantified by ELISA.
# HRF [2] = test: Phage clone ELISA for binding to immobilized HRF; details: wells coated with HRF or BSA (control)
# Protocol: Particularly, HRF was dissolved in a coating buffer (0.1 M NaHCO 3, pH 8.6) at the concentration of 20 μg/ml, which was loaded in a polystyrene microtiter plate (50 ? /well), followed by coating at 4° C. for overnight and blocking non-specific binding with BSA. The plate was washed with 0.1% Tween/TBS (TBST) 6 times. […] The plate stood at room temperature for 1 hour. TBST was added thereto, and the plate stood for 5 minutes, followed by washing. The washing was performed once after one round of panning, 5 times after 2 and 3 rounds of panning, and 10 times after 4 rounds of panning. 50 ? of glycine/HCl buffer (pH 2.2) was added thereto, which stood for 5 minutes. Then, phages were eluted, and then neutralization was induced with 8 ? of 1 M Tris-HCl (pH 9.1). The eluted phage solution was added to 20 ? of ER2537 culture medium (OD600=0.5˜1), followed by culture in a 37° C. shaking incubator (rpm=200) for 2 hours. 100 ? of SB medium was added thereto, followed by culture for overnight with shaking (250 rpm). The culture solution was centrifuged at 10,000 rpm (4° C.) for 15 minutes. 100 ? of the obtained supernatant was added with 30 ? of 5×PEG/NaCl (20% PEG(w/v), 15% NaCl (w/v)), followed by dissolving for 5 minutes. The mixture was then left in ice for 30 minutes. The mixture was centrifuged at 10,000 rpm (4° C.) for 20 minutes and the supernatant was discarded. The obtained pellet was suspended in 1 ? of 3% BSA/TBS. After performing centrifugation at 14,000 rpm for 5 minutes, the supernatant was obtained and used for panning. Affinity purification and phage replication were repeated 4 times, followed by eluting phages. Each phage clone was obtained from the proper plate of the eluted phage, followed by ELISA. Those phage clones showing a specific affinity to HRF were separated, followed by sequencing to confirm the peptide sequence. Those phage display peptides showing dominant binding to HRF were selected and listed below:
# That is, each phage plaque was added to 1 ? of the ER2537 culture medium (OD600=0.5˜1) cultured in SB medium, followed by culture in a 37° C. incubator (rpm=250) for 5 hours. 100 ? of each culture solution was added to 900 ? of SB medium, followed by culture for overnight. […]
# Each phage solution separated above was diluted in an equal volume of 6% BSA/PBS, and 50 ? of the diluted solution was added to each well of the plastic well plate coated with HRF or BSA (control), which stood for 2 hours. […] After adding peroxidase substrate solution thereto (100 ? /well), OD405 was measured with an ELISA reader.
# HRF was diluted serially by ⅕ fold each from the concentration of 20 μg/ ? […] The phage 2 solution diluted serially by ⅕ fold each (½, 1/10, 1/50, 1/250, and 1/1250 of the stock solution) was added thereto, followed by ELISA and OD405 was measured.
# [3] = system: dTBP2 (dTCTP binding peptide 2); test: Affinity of TCTP proteins to immobilized biotinylated dTBP2 (ELISA); details: biotinylated dTBP2 0.01-10 μm on streptavidin plate; protein 0.2 μg/ml; ELISA 450/570 nm
# Protocol: To investigate the affinity to dTBP2 of f-TCTP, Δ-dTCTP, and Del-N11dTCTP of the present invention, biotin was conjugated to the COOH-terminus of dTBP2 known to bind to HRF, followed by purification. The purified protein was immobilized in the plastic well coated with streptavidin, to which f-TCTP, Δ-dTCTP, and Del-N11dTCTP were added. Then, the binding strength of each protein was investigated.
# Particularly, 50 ? of the biotinylated dTBTP2 dissolved in a buffer (TBS [25 mM Tris, 150 mM NaCl, pH 7.2], 0.1% BSA, 0.05% Tween-20) at different concentrations of 0.01, 0.1, 1, and 10 μm was added to Reacti-Bind Streptavidin Coated Polystyrene Plates (PIERCE), followed by reaction at room temperature for 2 hours. The plate was washed with a washing buffer three times. Each of f-TCTP, Δ-dTCTP, and Del-N11dTCTP was dissolved in TBS at the concentration of 0.2 μg/ ? . 60 ? of the mixture was added to each well of the plate, followed by reaction for 1 hour. The plate was washed with a washing buffer three times. 100 ? of anti-HRF rabbit antibody (Bio-Rad) diluted in a buffer (1:2000) was added to each well of the plate, which stood at room temperature for 30 minutes. The plate was washed with a washing buffer three times and with TBS once, to which HRP-conjugated anti-rabbit antibody (1:2000) was added (100 ? /well), which stood at room temperature for 30 minutes. The plate was washed with a washing buffer three times and with TBS once, to which […] (PIERCE), the peroxydase substrate solution, was added (100 ? /well). Color development was measured at 450 nm and 570 nm using an ELISA reader (Bio-Rad), and affinity was determined by the difference.
# BEAS-2B cells [4] = test: GM-CSF secretion by f-TCTP, Δ-dTCTP and Del-N11dTCTP in BEAS-2B cells; type: cell-based; details: protein at 1, 5 or 10 μg/ml, 24 hours, ELISA
# Protocol: (§1) To investigate the IL-8 and GM-CSF secretory activity of f-TCTP, Δ-dTCTP, and Del-N11dTCTP in BEAS-2B cells, the present inventors compared the activity of f-TCTP, Δ-dTCTP, and Del-N11dTCTP by measuring the secretion of IL-8 in BEAS-2B cells.
# (§2) Particularly, BEAS-2B cells were cultured in a 48-well plate until the confluency reached to 70%. Then, the cells were washed with 1% penicillin-streptomycin/BEBM (Clonetics) twice. Each recombinant protein of the Δ-dTCTP separated in Example 1 of the invention, and the f-TCTP and Del-N11dTCTP constructed by the method described in Korean Patent Application No. 2006-0007663 was added thereto at the concentration of 1 μg/ ? , 5 μg/ ? , or 10 μg/ ? 24 hours later, the supernatant was obtained and the released IL-8 and GM-CSF were quantified by ELISA.
# BEAS-2B cells [5] = test: IL-8 secretion by f-TCTP, Δ-dTCTP and Del-N11dTCTP in BEAS-2B cells; type: cell-based; details: protein at 1, 5 or 10 μg/ml, 24 hours, ELISA
# Protocol: as §1, §2
molecule,measurement,setting,value
AYVYPSM [m1],HRF binding affinity (rank order),HRF [1],"p2, m6>m7>m3>m2>fm5>M1>m4"
"Ac-KPERVKPFMTGAAEQIKHILANFN-NH2 [Helix 3 domain, ID; NO: 22]",inhibition of IL-8 secretion induced by Del-N11dTCTP,Del-N11dTCTP,inhibited more strongly by FL domain and Helix 2 domain than by Helix 3 domain
"LVTYPLP (IgE-dependent histamine-releasing factor binding peptide) [ph1, ID; NO: 23]","binding of phage clone to HRF (ELISA, OD405)",HRF [2],specifically bind to HRF
WAVYPSM [m2],HRF binding affinity (rank order),HRF [1],"p2, m6>m7>m3>m2>fm5>M1>m4"
"WEFPGWM (IgE-dependent histamine-releasing factor binding peptide3) [ph4, ID; NO: 25]","binding of phage clone to HRF (ELISA, OD405)",HRF [2],specifically bind to HRF
WYAYPSM [m3],HRF binding affinity (rank order),HRF [1],"p2, m6>m7>m3>m2>fm5>M1>m4"
WYVAPSM [m4],HRF binding affinity (rank order),HRF [1],"p2, m6>m7>m3>m2>fm5>M1>m4"
WYVYKSM [m5],HRF binding affinity (rank order),HRF [1],"p2, m6>m7>m3>m2>fm5>M1>m4"
WYVYPAM [m6],HRF binding affinity (rank order),HRF [1],"p2, m6>m7>m3>m2>fm5>M1>m4"
WYVYPSA [m7],HRF binding affinity (rank order),HRF [1],"p2, m6>m7>m3>m2>fm5>M1>m4"
"f-TCTP: full-length TCTP, monomer form (SEQ. ID. NO: 17)",affinity to dTBP2,[3],Del-N11dTCTP had higher dTBP2 affinity than f-TCTP and Δ-dTCTP
same,secretion of GM-CSF,BEAS-2B cells [4],Del-N11dTCTP was superior to f-TCTP and Δ-dTCTP
same,secretion of IL-8,BEAS-2B cells [5],Del-N11dTCTP was superior to f-TCTP and Δ-dTCTP
Δ-dTCTP: dimer form of FL domain-deleted TCTP (protein) MIIYRDLISHDEMFSDIYKIREIADGLCLEVEGKMVSGGITGVDIVMNHHLQETSFTKEAYKKYIKDYMKSIKGKLEEQRPERVKPFMTGAAEQIKHILANFKNYQFFIGENMNPDGMVALLDYREDGVTPYMIFFKDGLEMEKCLEHHHHHH,affinity to dTBP2,[3],low affinity; also recorded: Del-N11dTCTP had higher dTBP2 affinity than f-TCTP and Δ-dTCTP
same,secretion of GM-CSF,BEAS-2B cells [4],Del-N11dTCTP was superior to f-TCTP and Δ-dTCTP
same,secretion of IL-8,BEAS-2B cells [5],Del-N11dTCTP was superior to f-TCTP and Δ-dTCTP
same,secretion of IL-8,BEAS-2B cells [5]; listed as A-dTCTP,could not induce IL-8 secretion
